In patent US5212165A, “Method for rehabilitating the vasorelaxant action of the coronary arteries impaired through atherosclerosis or hypercholesterolemia employing an ACE inhibitor” (E. R. Squibb & Sons, Inc., priority 1989, dated 1993):
“Also recorded” adds a separate entry of the source.

Tests used:
[1] = tested on: phenylephrine-contracted isolated iliac arteries; assay: Acetylcholine-induced relaxation of phenylephrine-contracted isolated iliac arteries from cynomolgus monkeys; parameters: species or system cynomolgus (Macaca fascicularis) monkeys; conditions: for maximum force generated in response to phenylephrine (before acetylcholine): mean±SEM
Description: (§1) Twenty-four male cynomolgus (Macaca fascicularis) monkeys were divided into four groups of six animals each. During the course of the study, one of the control monkeys was sacrificed due to ill health unrelated to the study. Each group was fed a different diet for six months. The control group ate a normal diet of monkey biscuit. The cholesterol group ate a specially formulated monkey diet containing cholesterol. The cholesterol +low captopril group ate the cholesterol diet supplemented with captopril (50 mg/kg divided into two daily doses). The cholesterol+high captopril group ate the cholesterol diet and a higher total dose of captopril (100 mg/kg divided into two daily doses).
(§2) The monkeys were sedated with an intramuscular injection of ketamine (10 mg/kg), then anesthetized with pentobarbital (25 mg/kg). The iliac arteries were carefully dissected, cleaned of surrounding connective tissue, and refrigerated overnight for use the following day.
(§3) On the day of the experiment, three iliac rings (3 mm wide) from each animal were cut and mounted for isometric force recording. Each ring was attached to a micrometer for the control of muscle length and to a Grass FT.03 force transducer and Grass 7D recorder. The rings were placed in warm (37° C.), oxygenated, physiological salt solution (PSS) of the following composition (in mM): 140.0 NaCl, 4.7 KCl, 1.2 MgSO4, 1.6 CaCl2, 1.2 NaH2 PO4, 5.6 D-glucose, 2.0 2-(N-morpholino)propanesulfonic acid (MOPS, pH 7.4 at 37° C.), and 0.02 Na2 -ethylenediaminetetraacetic acid (EDTA). The rings were stretched to a preload of 5 g during a 2 hour equilibration period, then stimulated with 1 μM phenylephrine to test for viability and relaxed with 100 nM acetylcholine to test for endothelial function. Stock solutions of phenylphrine, acetylcholine, propranolol, and sodium nitroprusside were prepared daily in water; nifedipine stock solutions were prepared daily in ethanol.
Alpha-adrenoceptor and endothelial cell function were examined in the third ring from each monkey. In the presence of 0.1 μM propranolol, a cumulative concentration-response curve to phenylephrine was obtained, then the phenylephrine was washed out of the baths and the rings were allowed to relax completely. The rings were subsequently contracted with an EC50 concentration of phenylephrine (1 μM) and, following stabilization of the contraction, the rings were treated with increasing concentrations of acetylcholine, followed by 100 nM sodium nitroprusside.
(§4) Data are presented as mean±SEM. The IC50 and EC50 values were estimated by linearly interpolating from the concentration-response curves. The EC50 values for each ring were used to determine the means for each treatment group.
For each monkey, the EC50 for acetylcholine relaxation was calculated by linearly interpolating from the concentration-response curves. When 50% relaxation was not achieved, the value of the EC50 was set to 30 μM a value larger than any of the experimental concentrations of acetylcholine).
Linear contrast of mean ranks in the groups were constructed with a variance estimate for the contrast based on the Kruskal-Wallis statistic (Dunn 1964).
In the analyses, the following coefficients were employed: i) for an overall test, the coefficients were 3 for the cholesterol group, 1 for the control group, -1 for the cholesterol+low captopril group, and -3 for the cholesterol+high captopril group, based on prior expectations of likely results; ii) for a test of the cholesterol effect, the coefficients were 1 for the cholesterol group, -1 for the control group, 0 for the cholestrol+low captopril group, and 0 for the cholesterol+high captopril group; iii) for a test of the captopril effect, the coefficients were 0 for the cholesterol group, 1 for the […], 0 for the cholesterol+low captopril group, and -1 for the cholesterol+high captopril group.
All statistical results reported are based on one-sided tests. […]

[2] = tested on: K^+ depolarized arteries (iliac rings); assay: Contractile responses to CaCl2 in K^+ depolarized iliac rings from cynomolgus monkeys; parameters: species or system cynomolgus (Macaca fascicularis) monkeys
Description: as §1, §2, §3
(§5) The voltage-dependent calcium channels were studied in one ring from each monkey. The protocol consisted of depleting the cells of calcium by exposing the rings to a Ca-free, EGTA (ethylene glycol-bis(β-aminoethyl ether)N,N,N',N'-tetraacetic acid) PSS (omission of CaCl2 and addition of 0.1 mM EGTA) for 30 minutes. The EGTA was subsequently removed from the tissues with three washes of Ca-free PSS (simple omission of CaCl2). Following that, the rings were bathed in Ca-free, K^+ PSS (omission of CaCl2 and isoosmotic substitution of KCl for NaCl such that the KCl concentration was 110 mM) for 30 minutes. A CaCl2 concentration-response curve was obtained by replacing the bath solution with K^+ PSS containing incremental increases in CaCl2 concentration (0.1, 0.3, 0.5, 1.0, 1.25, 1.6, and 2.5 mM). The maximal contractions, in response to 2.5 mM CaCl2, were then relaxed incrementally with nifedipine. Another iliac ring (fade control) from each monkey was subjected to the same protocol with the exception that the strips were allowed to remain contracted and the nifedipine concentration-response curve was not obtained. Some fade of the CaCl2 -induced force was observed over the time period required for the nifedipine concentration-response curve. This fade was accounted for by decreasing the amount of relaxation observed upon addition of nifedipine by the amount of fade observed in the time control from the same monkey.
as §4
Concentration-response curves to CaCl2 in K^+ depolarized rings were obtained following depletion of tissue calcium by repeated washing in Ca-free PSS first with, then without, EGTA. There were no differences in the responses to CaCl2 among any of the treatment groups (Table 1).

[3] = tested on: vascular relaxation in response to EN-D (ACh) and EN-I (Na nitroprusside) agonists; conditions: oral; rats; cited from earlier work
[4] = tested on: patients with Raynaud's phenomenon; conditions: cited from earlier work
[5] = tested on: bovine aortic endothelial cells; conditions: cited from earlier work
[6] = tested on: voltage-dependent calcium channels (iliac rings); assay: Relaxation responses to nifedipine of CaCl2-contracted iliac rings from cynomolgus monkeys; parameters: species or system cynomolgus (Macaca fascicularis) monkeys; conditions: cholesterol-fed monkeys, with captopril
Description: as §1, §2, §3, §5
Data are presented as mean±SEM. The IC50 and EC50 values were estimated by linearly interpolating from the concentration-response curves. […]

C[C@H](CS)C(=O)N1CCC[C@H]1C(=O)O [captopril, 1-[(2S)-3-mercapto-2-methylpropionyl]-L-proline]
EC50 at 100 mg/kg ([1]; Macaca fascicularis, Cholesterol + High Captopril (100 mg/kg daily, six months), N 5, non-responder excluded, Mean ± SEM): 0.1 ± 0.01 µM | endothelium-dependent vasorelaxant effects ([1]; arteries from hypercholesterolemic and atherosclerotic monkeys): enhance endothelium-dependent vasorelaxant effects | shift of EC50 concentration for acetylcholine ([1]; captopril as compared with cholesterol alone): statistically significant effect of captopril as compared with cholesterol; also recorded: significantly shifted the EC50 concentration for acetylcholine to the left | rings not showing 50% relaxation in response to acetylcholine ([1]; cholesterol diet and low dose captopril): One ring did not show 50% relaxation | iliac rings responsive to acetylcholine ([1]; cholesterol fed, high daily dose of captopril, six animals): Five of the iliac rings | maximum force generated in response to phenylephrine (before acetylcholine) ([1]; cholesterol+high captopril group, non-responders excluded): 11.9 ± 2.1 g | maximum force generated in response to phenylephrine (before acetylcholine) ([1]; cholesterol+low captopril group): 12.4 ± 2.2 g | potency and efficacy of acetylcholine in iliac rings from cholesterol-fed monkeys which received captopril ([1]; vs cholesterol diet without captopril): significantly more potent and efficacious | Max Force (CaCl2) ([2]; Cholesterol + High Captopril (100 mg/kg daily, six months), Mean ± SEM): 16.8 ± 1.1 g | Max Force (CaCl2) ([2]; Cholesterol + Low Captopril (50 mg/kg daily, six months), Mean ± SEM): 16.5 ± 1.8 g | EC50 at 100 mg/kg ([2]; Macaca fascicularis, Cholesterol + High Captopril (100 mg/kg daily, six months), Mean ± SEM): 150 ± 30 µM | EC50 at 50 mg/kg ([2]; Macaca fascicularis, Cholesterol + Low Captopril (50 mg/kg daily, six months), Mean ± SEM): 140 ± 40 µM | effect on in vitro response of iliac arteries to CaCl2 ([2]; cholesterol-fed monkeys, with captopril): neither cholesterol nor captopril affected | vascular relaxations in response to EN-D (ACh) and EN-I (Na nitroprusside) agonists [3]: differentially affected vascular relaxations | marked subjective improvement ([4]; 20 patients with primary or secondary Raynaud's phenomenon, Trubestein et al): 14 cases | incidence or severity of peripheral vasospasm ([4]; Raynaud's with hypertension secondary to scleroderma, Coffman): does not decrease the incidence or severity of peripheral vasospasm | digital circulation ([4]; one patient, Miyazaki et al): improved a patient's digital circulation | benefit in Raynaud's phenomenon and chronic leg ulceration ([4]; one patient, Rustin et al 1989): no benefit | cutaneous blood flow ([4]; p.o., 15 patients, placebo-controlled, double-blind cross-over, Rustin et al 1987): significantly improved cutaneous blood flow | frequency or severity of attacks ([4]; p.o., 15 patients, Rustin et al 1987): no effect on frequency or severity of attacks | frequency and severity of ischemic attacks ([4]; patients with Raynaud's disease, Tosi et al): significantly decreased the frequency and the severity of ischemic attacks | ischemic attacks in patients with scleroderma ([4]; patients with scleroderma, Tosi et al): did not affect the attacks | release of prostacyclin or EDRF induced by bradykinin ([5]; captopril 10 mu.K (so in the source)): did not affect the release | release of EDRF (direct) [5]: ineffective as releasers of EDRF | effect on in vitro response of iliac arteries to nifedipine [6]: neither cholesterol nor captopril affected
